# Biological target: T1, human estrogen receptor beta (Homo sapiens, UniProt Q92731)
# T1 construct: expressed in transfected cells; host or cells: HEK293 (CRL-1573)
# Test: Transactivation Assay 2 in human embryonic kidney 293 cells stably transfected with pERE2-ALP and human estrogen receptor beta
# Type: cell-based
# Details: read-out: potency at the estrogen receptor β-subtype, EC50
# Method: Transactivation Assay 2: Transactivation Assay in Human Embryonic Kidney 293 Cells Stably Transfected with pERE2-ALP and Human Estrogen Receptor Beta
# Generation of stable HEK293 cell lines (CRL-1573; American Type Culture Collection) expressing the reporter vector pERE2-ALP and human estrogen receptor beta (hERβ 530) have been described (Mol Pharmacol 1998, 54, 105-112; Endocrinology 2002, 143, 1558-1561).
# The cells were seeded in 384-well plates at 12 500 cells per well in Ham's F12 Coon's modification (without phenol red) with 10% dextran-coated charcoal treated (DCC) fetal bovine serum (FBS), 2 mM L-glutamine and 50 μg/ml gentamicin. After 24 h incubation (37° C., 5% CO2) the seeding medium was discarded and replaced with 20 μl Ham's F12 Coon's modification (without phenol red) with 1.5% DCC-FCS, 2 mM L-glutamine and supplemented with 100 U/ml penicillin and 100 μg/ml streptomycin. The selected compounds were added to the wells in 12 concentrations ranging from […] to 33 μM. The compounds were dissolved in 100% dimethylsulfoxide (DMSO) and the final concentration of DMSO in the assay was 0.1%. After 72 h incubation (37° C., 5% CO2) the medium was assayed for ALP activity by a chemiluminescence assay; a 10 μl aliquot of the conditioned medium was mixed with 100 μl assay buffer (0.1 M diethanolamine, 1 mM MgC12) and 0.5 mM disodium 3-(4-methoxyspiro 1,2-dioxetane-3,2′-(5′-chloro)-tricyclo[3.3.1.13,7]decan-4-yl)phenyl phosphate (CSPD) (Tropix, Applied Biosystems) and incubated for 20 min at 37° C. and 15 min at room temperature before measurement of the chemiluminescent signal (one second per well) in a Wallac Microbeta Trilux 1450-028 (PerkinElmer). The ALP activity expressed in LCPS is directly proportional to the level of ALP expressed by the cells. The half maximal effective concentrations of the test compounds (EC50) were calculated from the curves fitted to the concentration-response data with a four parameter logistic model in XLfit software version 2.0 (IDBS) or later.
# T1 sequence (Q92731 whole entry): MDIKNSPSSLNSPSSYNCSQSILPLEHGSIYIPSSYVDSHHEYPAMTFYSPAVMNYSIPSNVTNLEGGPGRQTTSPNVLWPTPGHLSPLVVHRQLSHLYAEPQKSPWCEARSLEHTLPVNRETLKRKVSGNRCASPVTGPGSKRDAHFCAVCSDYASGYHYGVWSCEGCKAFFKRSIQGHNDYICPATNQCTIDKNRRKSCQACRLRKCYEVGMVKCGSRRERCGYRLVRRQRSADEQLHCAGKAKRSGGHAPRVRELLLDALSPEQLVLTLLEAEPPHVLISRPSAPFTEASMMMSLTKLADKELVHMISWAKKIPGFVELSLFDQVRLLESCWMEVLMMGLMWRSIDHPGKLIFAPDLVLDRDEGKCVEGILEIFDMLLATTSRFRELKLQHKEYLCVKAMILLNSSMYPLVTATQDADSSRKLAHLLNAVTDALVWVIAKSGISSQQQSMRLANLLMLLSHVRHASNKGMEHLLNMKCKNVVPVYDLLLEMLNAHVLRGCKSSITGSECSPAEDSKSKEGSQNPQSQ
row,Structure (SMILES),EC50 [nM]
1,"Cc1cccc(C)c1-c1c(-c2ccc(O)cc2)c2ccccc2n1C(N)=NO [Example 12, 2-(2,6-dimethylphenyl)-N′-hydroxy-3-(4-hydroxyphenyl)-1H-indole-1-carboximidamide]",0.1 to 10
2,"Cc1noc(C)c1-c1c(-c2ccc(O)cc2)c2ccccc2n1C(N)=O [Example 3, 2-(3,5-dimethylisoxazol-4-yl)-3-(4-hydroxyphenyl)-1H-indole-1-carboxamide]",0.1 to 10
3,"Cc1csc(C)c1-c1c(-c2ccc(O)cc2)c2cc(Cl)ccc2n1C(N)=NO [Example 21, 5-chloro-2-(2,4-dimethylthiophen-3-yl)-N′-hydroxy-3-(4-hydroxyphenyl)-1H-indole-1-carboximidamide]",0.1 to 10
4,"Cc1coc(C)c1-c1c(-c2ccc(O)cc2)c2ccccc2n1C(N)=NO [Example 23, 2-(2,4-dimethylfuran-3-yl)-N′-hydroxy-3-(4-hydroxyphenyl)-1H-indole-1-carboximidamide]",0.1 to 10
5,"Cc1noc(C)c1-c1c(-c2cc(F)c(O)c(F)c2)c2ccccc2n1C(N)=NO [Example 16, 3-(3,5-difluoro-4-hydroxyphenyl)-2-(3,5-dimethylisoxazol-4-yl)-N′-hydroxy-1H-indole-1-carboximidamide]",0.1 to 10
6,"Cc1noc(C)c1-c1c(-c2ccc(O)cc2)c2cc(Cl)ccc2n1C(N)=NO [Example 22, 5-chloro-2-(3,5-dimethylisoxazol-4-yl)-N′-hydroxy-3-(4-hydroxyphenyl)-1H-indole-1-carboximidamide]",0.1 to 10
7,"Cc1nsc(C)c1-c1c(-c2ccc(O)cc2)c2ccccc2n1C(N)=NO [Example 24, 2-(3,5-dimethylisothiazol-4-yl)-N′-hydroxy-3-(4-hydroxyphenyl)-1H-indole-1-carboximidamide]",0.1 to 10
8,"Cc1csc(C)c1-c1c(-c2ccc(O)cc2)c2ccccc2n1C(N)=O [Example 11, 2-(2,4-dimethylthiophen-3-yl)-3-(4-hydroxyphenyl)-1H-indole-1-carboxamide]",0.1 to 10
9,"Cc1noc(C)c1-c1c(-c2ccc(O)c(F)c2)c2ccccc2n1C(N)=NO [Example 20, 2-(3,5-dimethylisoxazol-4-yl)-3-(3-fluoro-4-hydroxyphenyl)-N′-hydroxy-1H-indole-1-carboximidamide]",0.1 to 10
10,"Cc1noc(C)c1-c1c(-c2ccc(O)cc2)c2ccccc2n1C(N)=NO [Example 2, 2-(3,5-dimethylisoxazol-4-yl)-N′-hydroxy-3-(4-hydroxyphenyl)-1H-indole-1-carboximidamide]",0.1 to 10
11,"Cc1noc(C)c1-c1c(-c2cc(F)c(O)cc2F)c2ccccc2n1C(N)=NO [Example 19, 3-(2,5-difluoro-4-hydroxyphenyl)-2-(3,5-dimethylisoxazol-4-yl)-N′-hydroxy-1H-indole-1-carboximidamide]",0.1 to 10
12,"Cc1noc(C)c1-c1c(-c2ccc(O)cc2)c2ccccc2n1C=NO [Example 5, 2-(3,5-dimethylisoxazol-4-yl)-3-(4-hydroxyphenyl)-1H-indole-1-carbaldehyde oxime]",0.1 to 10
13,"CC=C(C)c1c(-c2ccc(O)cc2)c2ccccc2n1C(N)=NO (stereo in doubt) [Example 7, 2-((E)-but-2-en-2-yl)-N′-hydroxy-3-(4-hydroxyphenyl)-1H-indole-1-carboximidamide]",0.1 to 10
14,"Cc1csc(C)c1-c1c(-c2ccc(O)cc2)c2ccccc2n1C(N)=NO [Example 10, 2-(2,4-dimethylthiophen-3-yl)-N′-hydroxy-3-(4-hydroxyphenyl)-1H-indole-1-carboximidamide]",0.1 to 10
15,"Cc1noc(C)c1-c1c(-c2ccc(O)cc2)c2ccccc2n1S(C)(=O)=O [Example 6, 4-(2-(3,5-dimethylisoxazol-4-yl)-1-(methylsulfonyl)-1H-indol-3-yl)phenol]",0.1 to 10
16,"Cc1noc(C)c1-c1c(-c2ccc(O)cc2F)c2ccccc2n1C(N)=NO [Example 18, 2-(3,5-dimethylisoxazol-4-yl)-3-(2-fluoro-4-hydroxyphenyl)-N′-hydroxy-1H-indole-1-carboximidamide]",0.1 to 10
17,"CCNC(=O)n1c(-c2c(C)noc2C)c(-c2ccc(O)cc2)c2ccccc21 [Example 8, 2-(3,5-dimethylisoxazol-4-yl)-N-ethyl-3-(4-hydroxyphenyl)-1H-indole-1-carboxamide]",0.1 to 10
